Values of other authors in patent US8101633B2, “Preparation and utility of substituted imidazopyridine compounds with hypnotic effects” (Auspex Pharmaceuticals, Inc., priority 2006, dated 2012).

System: cytochrome P450
Details: background statement

Question: What does the source list for Cc1ccc(-c2nc3ccc(C)cn3c2CC(=O)N(C)C)cc1 [zolpidem, Zolpidem]?
Answer: share of net intrinsic clearance accounted for by imidazopyridyl methyl group oxidation: ~12%; share of net intrinsic clearance accounted for by oxidation of the benzylic methyl group: approximately 84%
